For data set [1], the system named is STAT3. Put plainly: Inhibitory effect on IL-6-induced STAT3 phosphorylation in human myeloma cells (in vitro). The note with it: U266B1 human myeloma cells, IL-6 1 ng/mL, pSTAT3 (Y705) by flow cytometry. Type of data set: cell-based. The method, then:
The inhibitory effect of the test compound on phosphorylation of STAT3 (signal transducer and activator of transcription-3) in human myeloma cells ([…]) induced by interleukin-6 (IL-6) was examined using the modified method of Tochizawa S. et al. (J Immunol Methods. 2006 Jun. 30; 313(1-2): 29-37). In the study, U266B1 cells were seeded in an RPMI 1640 medium containing 10% fetal bovine serum (FBS) in a 12-well plate and incubated at 37° C. for 2 hours in the presence of carbon dioxide. After incubation, IL-6 was added to yield the concentration of 1 ng/mL and the cells were incubated at 37° C. for 15 minutes in the presence of 5% carbon dioxide. After fixation of the cells by the addition of a buffer containing formaldehyde (Lyse/Fix Buffer, BD Biosciences) at room temperature for 10 minutes, the suspension was centrifuged to remove the supernatant and the cells were treated with ice-cold methanol for 10 minutes to improve the permeability of the cell membrane. The cells were centrifuged to remove methanol and washed twice with Dulbecco's phosphate buffered saline (D-PBS) containing 2% fetal bovine serum (FBS). A fluorescence-labeled anti-phosphorylated STAT3 (pSTAT3) antibody (Alexa Fluor 488-labeled anti-pSTAT3 (Y705) antibody, BD Biosciences) was added for staining in an ice bath for 30 minutes.
The cells were washed once with 2% FBS-containing D-PBS and suspended in 2% FBS-containing D-PBS, and the fluorescence intensity was determined using a flow cytometer (FACS Sort, BD Biosciences). The ratio of fluorescence intensity in the test group to the control group (T/C) was determined from the difference in the geometric mean of pSTAT3 fluorescence intensity between the test compound group of each concentration and the non-stimulated control group according to the following equation by defining the difference in the geometric mean of pSTAT3 fluorescence intensity between the IL-6 induced control and the non-stimulated control as 100%. T/C(%)=([…] of pSTAT3 fluorescence intensity in the cells treated with the test compound—geometric mean of pSTAT3 fluorescence intensity in non-stimulated control)/(geometric mean of fluorescence intensity of IL-6-induced pSTAT3 in the control−geometric mean of pSTAT3 fluorescence intensity in non-stimulated control)×100.
The concentration of the test compound inhibiting phosphorylation of STATS at 50% (IC50; concentration of the test compound corresponding to 50% T/C(%)) was determined using T/C(%) values at the respective concentrations and defined as the index for the inhibitory activity.

Data set [2] deals with LI90 cells, a human hepatic stellate cell line. Put plainly: Inhibitory effect on collagen synthesis (in vitro). Type of data set: cell-based. The note with it: in the presence of recombinant human TGF-β1, 3H-proline labelled collagen in supernatant. The method, then:
Inhibitory Effect on Collagen Synthesis (In Vitro)
LI90 cells, a human hepatic stellate cell line, were suspended in DMEM (Dulbecco's modified eagle medium) supplemented with 10% inactivated FBS (fetal bovine serum), seeded on a 12-well plate and cultured in a CO2 incubator (preset temperature: 37° C., preset CO2 concentration: 5%). After being cultured for 24 hours, the cells were washed with D-PBS (Dulbecco's phosphate buffered saline), placed in MEM (Eagle's minimum essential medium) supplemented with 0.1% inactivated FBS and then cultured in a CO2 incubator. After being cultured for 3 days, the cells were again washed with D-PBS, placed in MEM (Eagle's minimum essential medium) supplemented with 0.1% inactivated FBS and treated with or without a test compound in the presence of […] recombinant human TGF-β1 (transforming growth factor-β1) in a CO2 incubator for 16 hours. After the incubation, the cells were washed with D-PBS and the medium was replaced with MEM containing 0.25 mM ascorbate. A radio-labeled compound, ^3H-proline, was then added to the culture medium to radio-label the collagen proteins produced. After being cultured for 24 hours, the supernatant was collected and the collagen proteins were extracted from the supernatant as acid-soluble fractions. The amount of collagen produced was determined by measuring the radioactivity contained in the fractions. A concentration of test compound that produced 50% inhibition [IC50 value (nM)] on collagen synthesis was calculated by comparing the radioactivity count in a supernatant of test-compound-treated cells with that of untreated cells (control).

A value given as a limit tells only on which side of the number the result lay.

Regarding `Br.CN(C(=O)c1ccc(C(F)(F)F)cc1)c1ccc(Oc2ccc3cc(C(=O)N4CCN(Cc5ccc(C#N)cc5)CC4)n(C)c3c2)nc1` [Example 321, N-(6-{2-[4-(4-Cyanobenzyl)piperazine-1-carbonyl]-1-methyl-1H-indol-6-yloxy}pyridin-3-yl)-N-methyl-4-trifluoromethylbenzamide hydrobromide], the melting point fell in the range of 267 to 270 °C. In addition, in data set [1], the IC50 was less than 0.01 µM.
In the same order, the values of `CCOc1ccc(CN2CCN(C(=O)c3cc4cc(Oc5ccc(N(C)C(=O)c6ccc(C(F)(F)F)cc6)cn5)ccc4n3C)CC2)cc1.O=C(O)/C=C\C(=O)O` [Example 342, N-(6-{2-[4-(4-Ethoxybenzyl)piperazine-1-carbonyl]-1-methyl-1H-indol-5-yloxy}pyridin-3-yl)-N-methyl-4-trifluoromethylbenzamide maleate] are 131 to 135 °C and less than 0.01 µM.
Consider `COc1ccc(/C=C/CN2CCN(C(=O)c3cc4cc(Oc5ccc(NC(=O)c6ccc(C(F)(F)F)cc6)cn5)ccc4n3C)CC2)cc1.CS(=O)(=O)O` [Example 357, N-[6-(2-{4-[(E)-3-(4-Methoxyphenyl)allyl]piperazine-1-carbonyl}-1-methyl-1H-indol-5-yloxy)pyridin-3-yl]-4-trifluoromethyl-benzamide methanesulfonate], for which the melting point was 246 to 249 °C (dec.). Besides, in data set [2], the IC50 is less than 0.01 µM.
For `COc1ccc(CN2CCN(C(=O)c3cc4cc(Oc5ncc(NC(=O)c6ccc(C(F)(F)F)cc6)cn5)ccc4n3C)CC2)cc1` [Example 380, N-(2-{2-[4-(4-Methoxybenzyl)piperazine-1-carbonyl]-1-methyl-1H-indol-5-yloxy}pyrimidin-5-yl)-4-trifluoromethylbenzamide] the same measures were 179 to 180 °C and less than 0.01 µM.
Molecule `CN(C(=O)c1ccc(C(F)(F)F)cc1)c1ccc(Oc2ccc3c(c2)cc(C(=O)N2CCN(Cc4ccc(OC(F)(F)C(F)F)cc4)CC2)n3C)nc1.O=C(O)/C=C\C(=O)O` [Example 403, N-Methyl-N-[6-(1-methyl-2-{4-[4-(1,1,2,2-tetrafluoroethoxy)-benzyl]piperazine-1-carbonyl}-1H-indol-5-yloxy)pyridin-3-yl]-4-trifluoromethylbenzamide maleate] showed a melting point of 137 to 139 °C. For the same molecule, in data set [1], the IC50 is less than 0.01 µM.
As to `CCOc1ccc(CN2CCN(C(=O)c3cc4cc(Oc5ccc(N(C)C(=O)c6ccc(C(F)(F)F)cc6)cn5)ccc4n3C)CC2)nc1.O=C(O)/C=C\C(=O)O` [Example 417, N-(6-{2-[4-(5-Ethoxypyridin-2-ylmethyl)piperazine-1-carbonyl]-1-methyl-1H-indol-5-yloxy}pyridin-3-yl)-N-methyl-4-trifluoromethyl-benzamide maleate], the melting point lay in the range of 129 to 130 °C. The molecule further returned an IC50 in data set [1] of less than 0.01 µM.
As for `Br.CCCOc1ccc(CN2CCN(C(=O)c3cc4ccc(Oc5ccc(N(C)C(=O)c6ccc(C(F)(F)F)cc6)cn5)cc4n3C)CC2)cc1` [Example 420, N-Methyl-N-(6-{1-methyl-2-[4-(4-propoxybenzyl)piperazine-1-carbonyl]-1H-indol-6-yloxy}pyridin-3-yl)-4-trifluoromethyl-benzamide hydrobromide], the melting point fell in the range of 246 to 248 °C. In data set [1], this molecule came in with an IC50 of less than 0.01 µM.
For `Br.CC(C)Oc1ccc(CN2CCN(C(=O)c3cc4ccc(Oc5ccc(N(C)C(=O)c6ccc(C(F)(F)F)cc6)cn5)cc4n3C)CC2)cc1` [Example 421, N-(6-{2-[4-(4-Isopropoxybenzyl)piperazine-1-carbonyl]-1-methyl-1H-indol-6-yloxy}pyridin-3-yl)-N-methyl-4-trifluoromethyl-benzamide hydrobromide] the same measures were 251 to 253 °C and less than 0.01 µM.
As for `CC(C)Oc1ccc(CN2CCN(C(=O)c3cc4ccc(Oc5ccc(N(C)S(=O)(=O)c6ccc(Cl)c(Cl)c6)cn5)cc4n3C)CC2)cc1` [Example 507, 3,4-Dichloro-N-(6-{2-[4-(4-isopropoxybenzyl)piperazine-1-carbonyl]-1-methyl-1H-indol-6-yloxy}pyridin-3-yl)-N-methyl-benzenesulfonamide], the melting point fell in the range of 186.8 to 187 °C. For the same molecule, the IC50 in data set [1] was less than 0.01 µM.
With `Cc1ccc(S(=O)(=O)N(C)c2ccc(Oc3ccc4cc(C(=O)N5CCN(Cc6ccc(OC(C)C)cc6)CC5)n(C)c4c3)nc2)cc1` [Example 525, N-(6-{2-[4-(4-Isopropoxybenzyl)piperazine-1-carbonyl]-1-methyl-1H-indol-6-yloxy}pyridin-3-yl)-4,N-dimethylbenzenesulfonamide], the melting point lay in the range of 140.9 to 145.8 °C. The same molecule displayed an IC50 in data set [1] of less than 0.01 µM.
In the same order, the values of `Cc1ccc(S(=O)(=O)N(C)c2ccc(Oc3ccc4cc(C(=O)N5CCN(Cc6ccc7c(c6)OC(F)(F)O7)CC5)n(C)c4c3)nc2)cc1.Cl` [Example 526, N-(6-{2-[4-(2,2-Difluorobenzo[1,3]dioxol-5-ylmethyl)piperazine-1-carbonyl]-1-methyl-1H-indol-6-yloxy}pyridin-3-yl)-4,N-dimethyl-benzenesulfonamide hydrochloride] are 240 to 243 °C and less than 0.01 µM.
With `Br.Cn1c(C(=O)N2CCN(Cc3cnc(-c4ccc(C(F)(F)F)cc4)s3)CC2)cc2cc(Oc3ccc(NC(=O)c4ccc(C(F)(F)F)cc4)cn3)ccc21` [Example 572, N-[6-(1-Methyl-2-{4-[2-(4-trifluoromethylphenyl)thiazol-5-yl-methyl]piperazine-1-carbonyl}-1H-indol-5-yloxy)pyridin-3-yl]-4-trifluoromethylbenzamide hydrobromide], the melting point was in the range of 218.9 to 220.8 °C. In data set [2], the IC50 was less than 0.01 µM.

The values above are taken from patent US8551999B2, “Heterocyclic compound and pharmaceutical composition thereof” (Otsuka Pharmaceutical Co., Ltd., priority 2007, dated 2013).
